Two compounds from patent US20130172320A1, “PYRIDO [4,3-B] INDOLE AND PYRIDO [3,4-B] INDOLE DERIVATIVES AND METHODS OF USE” (priority 2010, published 2013) can be followed below.

Assay [1] addresses T1, rat adrenergic α1B receptor (Rattus norvegicus, UniProt P15823).
T1 construct: rat adrenergic α1B receptor obtained from Wistar Rat liver; from tissue; host or cells: Wistar Rat liver
T1 sequence (P15823 1-515): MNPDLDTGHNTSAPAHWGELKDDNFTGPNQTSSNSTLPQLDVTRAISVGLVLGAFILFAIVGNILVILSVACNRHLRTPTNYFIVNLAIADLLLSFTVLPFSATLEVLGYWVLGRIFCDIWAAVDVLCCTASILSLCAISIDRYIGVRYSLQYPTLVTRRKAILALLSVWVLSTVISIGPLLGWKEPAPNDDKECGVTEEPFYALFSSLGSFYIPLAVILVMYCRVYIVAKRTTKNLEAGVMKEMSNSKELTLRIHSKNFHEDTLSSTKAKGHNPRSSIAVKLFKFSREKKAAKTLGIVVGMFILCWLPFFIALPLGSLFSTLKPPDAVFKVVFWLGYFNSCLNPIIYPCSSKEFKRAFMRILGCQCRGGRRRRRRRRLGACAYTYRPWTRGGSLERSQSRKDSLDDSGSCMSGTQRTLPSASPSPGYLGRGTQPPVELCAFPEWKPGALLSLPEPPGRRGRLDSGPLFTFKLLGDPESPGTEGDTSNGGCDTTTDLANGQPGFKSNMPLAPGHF
Put plainly: Adrenergic α1B radioligand binding ([3H]Prazosin). Details: species or system Wistar Rat. Particulars: compound at 0.1 μM; read-out: Percentage inhibition of ligand binding, Adrenergic (0.1 μM) a1B. As for the experimental part:
(§1) To evaluate in radioligand binding assays the activity of compounds of the invention, rat adrenergic α1B receptor obtained from Wistar Rat liver (Garcia-S'ainz, J. et al, Biochem. Biophys. Res. Commun. 186:760, 1992; Michel, A. et al, Br. J. Pharmacol. 98:883, 1989) in a modified Tris-HCl buffer (50 mM Tris-HCl buffer, pH 7.4, 0.5 mM EDTA) was used. Compounds of the invention were incubated with 0.25 nM [^3H]Prazosin for 60 min at 25° C. Non-specific binding was estimated in the presence of 10 μM phentolamine. Receptor proteins were filtered and washed, the filters were then counted to determine [^3H]Prazosin specifically bound. Compounds were screened at 1 μM or lower, using 1% DMSO as vehicle. Biochemical assay results are presented as the percent inhibition of specific binding in Table 3.

The target in assay [2] is human recombinant serotonin (5-Hydroxytryptamine) 5-HT7 receptor (Homo sapiens, UniProt P34969). Put plainly: Serotonin 5-HT7 radioligand binding ([3H]LSD). Particulars: compound at 0.1 μM; read-out: Percentage inhibition of ligand binding, Serotonin (0.1 μM) 5-HT7. How it is done: To evaluate in radioligand binding assays the activity of compounds of the invention, human recombinant serotonin (5-Hydroxytryptamine) 5-HT7 receptor expressed in Chinese hamster ovary (CHO) cells (Roth, B. et al, J. Pharmacol. Exp. Ther. 268:1403, 1994; Shen, Y. et al, J. Biol. Chem. 268:18200, 1993) in a modified Tris-HCl buffer (50 mM Tris-HCl, pH 7.4, 10 mM MgCl2, 0.5 mM EDTA) was used. Compounds of invention were incubated with 5.5 nM [^3H] Lysergic acid diethylamide (LSD) for 2 h at 25° C. Non-specific binding was estimated in the presence of 10 μM Serotonin (5-HT). Receptor proteins were filtered and washed, the filters were then counted to determine [^3H]LSD specifically bound. Compounds were screened at 1 μM or lower, using 1% DMSO as vehicle. Biochemical assay results are presented as the percent inhibition of specific binding in Table 4.

Assay [3] addresses T2, rat adrenergic α1A receptor (Rattus norvegicus, UniProt P43140).
T2 construct: rat adrenergic α1A receptor obtained from Wistar Rat submaxillary glands; from tissue; host or cells: Wistar Rat submaxillary glands
T2 sequence (P43140 1-466): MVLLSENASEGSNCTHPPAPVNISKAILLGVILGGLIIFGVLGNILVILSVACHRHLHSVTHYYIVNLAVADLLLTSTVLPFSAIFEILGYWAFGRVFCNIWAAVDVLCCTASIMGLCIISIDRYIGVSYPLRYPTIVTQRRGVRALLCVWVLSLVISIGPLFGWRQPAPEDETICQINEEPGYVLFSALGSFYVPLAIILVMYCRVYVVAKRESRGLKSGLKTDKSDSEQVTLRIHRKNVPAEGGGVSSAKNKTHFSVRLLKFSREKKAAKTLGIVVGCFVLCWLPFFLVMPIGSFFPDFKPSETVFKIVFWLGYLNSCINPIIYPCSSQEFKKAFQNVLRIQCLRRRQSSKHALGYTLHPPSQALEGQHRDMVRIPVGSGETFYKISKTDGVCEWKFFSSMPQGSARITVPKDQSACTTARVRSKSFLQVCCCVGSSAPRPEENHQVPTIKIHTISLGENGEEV
Put plainly: Adrenergic α1A radioligand binding ([3H]Prazosin). More on the design: species or system Wistar Rat. Particulars: compound at 0.1 μM; read-out: Percentage inhibition of ligand binding, Adrenergic (0.1 μM) a1A. How it is done: as §1, with “rat adrenergic α1A receptor obtained” for “rat adrenergic α1B receptor obtained”, “Wistar Rat submaxillary glands (Michel, A. et” for “Wistar Rat liver (Garcia-S'ainz, J. et al, Biochem. Biophys. Res. Commun. 186:760, 1992; Michel, A. et”, “10 μM phentolamine Receptor proteins” for “10 μM phentolamine. Receptor proteins”, “bound. Compounds of the invention were screened” for “bound. Compounds were screened”

The target in assay [4] is human recombinant dopamine D2L receptor (Homo sapiens, UniProt P14416). Put plainly: Dopamine D2L radioligand binding ([3H]Spiperone). Particulars: compound at 0.2 μM; read-out: Percentage inhibition of ligand binding, Dopamine (0.2 μM) D2L. How it is done:
To evaluate in radioligand binding assays the activity of compounds of the invention, human recombinant dopamine D2L receptor expressed in Chinese hamster ovary (CHO) cells (Grandy, D. et al, Proc. Natl. Acad. Sci. USA. 86:9762, 1989; Hayes, G. et al, Mol. Endocrinol. 6:920, 1992) in a modified Tris-HCl buffer (50 mM Tris-HCl, pH 7.4, 1.4 mM Ascorbic Acid, 0.001% BSA, 150 mM NaCl) was used. Compounds of the invention were incubated with 0.16 nM [^3H]Spiperone for 120 min at 25° C. Non-specific binding was estimated in the presence of 10 μM Haloperidol. Receptor proteins were filtered and washed, the filters were then counted to determine [^3H]Spiperone specifically bound. Compounds were screened at 1 μM or lower, using 1% DMSO as vehicle. Biochemical assay results are presented as the percent inhibition of specific binding in Table 3.

The inhibition is the drop in the measured response relative to a control, in per cent.

Each structure is given as a SMILES string.

Chain of human recombinant dopamine D2L receptor (P14416 whole entry): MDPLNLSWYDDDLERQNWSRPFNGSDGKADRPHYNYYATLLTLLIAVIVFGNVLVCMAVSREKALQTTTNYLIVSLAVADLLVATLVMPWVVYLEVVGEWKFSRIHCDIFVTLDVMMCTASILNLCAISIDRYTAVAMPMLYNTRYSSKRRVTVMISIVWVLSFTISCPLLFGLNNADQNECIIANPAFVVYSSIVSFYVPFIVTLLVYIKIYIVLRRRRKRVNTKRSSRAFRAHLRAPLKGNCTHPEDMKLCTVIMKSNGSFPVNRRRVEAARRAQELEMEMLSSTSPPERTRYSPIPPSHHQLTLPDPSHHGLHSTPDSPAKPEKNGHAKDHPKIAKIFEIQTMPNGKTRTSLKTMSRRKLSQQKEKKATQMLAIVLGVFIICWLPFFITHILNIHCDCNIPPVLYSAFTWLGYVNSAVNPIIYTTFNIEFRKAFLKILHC
Chain of human recombinant serotonin (5-Hydroxytryptamine) 5-HT7 receptor (P34969 whole entry): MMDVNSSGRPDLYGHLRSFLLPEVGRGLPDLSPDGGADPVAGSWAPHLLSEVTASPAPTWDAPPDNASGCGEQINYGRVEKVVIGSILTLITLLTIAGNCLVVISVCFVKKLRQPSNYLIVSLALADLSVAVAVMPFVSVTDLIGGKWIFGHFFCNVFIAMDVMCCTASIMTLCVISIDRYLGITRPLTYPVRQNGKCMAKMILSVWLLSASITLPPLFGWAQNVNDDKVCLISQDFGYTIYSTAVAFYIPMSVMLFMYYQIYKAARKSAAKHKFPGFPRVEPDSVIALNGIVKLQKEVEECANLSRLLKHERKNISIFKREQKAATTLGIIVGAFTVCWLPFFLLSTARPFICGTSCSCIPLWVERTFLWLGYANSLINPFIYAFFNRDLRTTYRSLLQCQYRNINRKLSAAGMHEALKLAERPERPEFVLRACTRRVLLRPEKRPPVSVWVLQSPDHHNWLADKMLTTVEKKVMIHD

As for `C#CCC1(C)CN(C)Cc2c1n(C)c1ccc(C)cc21` (centres unmarked) [Compound 47, 2,4,5,8-tetramethyl-4-(prop-2-ynyl)-2,3,4,5-tetrahydro-1H-pyrido[4,3-b]indole], the inhibition at 0.1 µM in assay [1] worked out at 34%; in assay [2] it was 13%; in assay [3], 16%. Further, the inhibition at 0.2 µM in assay [4] came to 5%.

With `Cc1ccc2c(c1)c1c(n2C)C(C)(CCc2nc(-c3ccccc3)cs2)CN(C)C1` (centres unmarked) [Compound 48], the values for the inhibition at 0.1 µM in assay [1], in assay [2] and in assay [3] were 20%, 17% and 34%, respectively. Further, the inhibition at 0.2 µM in assay [4] was -5%.
